Data as given in ChEMBL document CHEMBL3988442, “University of Dundee, Small-Polar-MMV Screening Library” (2021).
Values joined by “and” are separate entries in the source; they are usually repeats but may differ in a detail not shown here. Equal entries are not always repeated.

Experiments:
[1] = target: Polyketide synthase Pks13 (Mycobacterium tuberculosis (strain ATCC 25618 / H37Rv), UniProt I6X8D2); test: Mycobacterium tuberculosis Polyketide synthase 13 Thioesterase (PKS13); format: functional
Polyketide synthase Pks13, sequence (I6X8D2 whole entry): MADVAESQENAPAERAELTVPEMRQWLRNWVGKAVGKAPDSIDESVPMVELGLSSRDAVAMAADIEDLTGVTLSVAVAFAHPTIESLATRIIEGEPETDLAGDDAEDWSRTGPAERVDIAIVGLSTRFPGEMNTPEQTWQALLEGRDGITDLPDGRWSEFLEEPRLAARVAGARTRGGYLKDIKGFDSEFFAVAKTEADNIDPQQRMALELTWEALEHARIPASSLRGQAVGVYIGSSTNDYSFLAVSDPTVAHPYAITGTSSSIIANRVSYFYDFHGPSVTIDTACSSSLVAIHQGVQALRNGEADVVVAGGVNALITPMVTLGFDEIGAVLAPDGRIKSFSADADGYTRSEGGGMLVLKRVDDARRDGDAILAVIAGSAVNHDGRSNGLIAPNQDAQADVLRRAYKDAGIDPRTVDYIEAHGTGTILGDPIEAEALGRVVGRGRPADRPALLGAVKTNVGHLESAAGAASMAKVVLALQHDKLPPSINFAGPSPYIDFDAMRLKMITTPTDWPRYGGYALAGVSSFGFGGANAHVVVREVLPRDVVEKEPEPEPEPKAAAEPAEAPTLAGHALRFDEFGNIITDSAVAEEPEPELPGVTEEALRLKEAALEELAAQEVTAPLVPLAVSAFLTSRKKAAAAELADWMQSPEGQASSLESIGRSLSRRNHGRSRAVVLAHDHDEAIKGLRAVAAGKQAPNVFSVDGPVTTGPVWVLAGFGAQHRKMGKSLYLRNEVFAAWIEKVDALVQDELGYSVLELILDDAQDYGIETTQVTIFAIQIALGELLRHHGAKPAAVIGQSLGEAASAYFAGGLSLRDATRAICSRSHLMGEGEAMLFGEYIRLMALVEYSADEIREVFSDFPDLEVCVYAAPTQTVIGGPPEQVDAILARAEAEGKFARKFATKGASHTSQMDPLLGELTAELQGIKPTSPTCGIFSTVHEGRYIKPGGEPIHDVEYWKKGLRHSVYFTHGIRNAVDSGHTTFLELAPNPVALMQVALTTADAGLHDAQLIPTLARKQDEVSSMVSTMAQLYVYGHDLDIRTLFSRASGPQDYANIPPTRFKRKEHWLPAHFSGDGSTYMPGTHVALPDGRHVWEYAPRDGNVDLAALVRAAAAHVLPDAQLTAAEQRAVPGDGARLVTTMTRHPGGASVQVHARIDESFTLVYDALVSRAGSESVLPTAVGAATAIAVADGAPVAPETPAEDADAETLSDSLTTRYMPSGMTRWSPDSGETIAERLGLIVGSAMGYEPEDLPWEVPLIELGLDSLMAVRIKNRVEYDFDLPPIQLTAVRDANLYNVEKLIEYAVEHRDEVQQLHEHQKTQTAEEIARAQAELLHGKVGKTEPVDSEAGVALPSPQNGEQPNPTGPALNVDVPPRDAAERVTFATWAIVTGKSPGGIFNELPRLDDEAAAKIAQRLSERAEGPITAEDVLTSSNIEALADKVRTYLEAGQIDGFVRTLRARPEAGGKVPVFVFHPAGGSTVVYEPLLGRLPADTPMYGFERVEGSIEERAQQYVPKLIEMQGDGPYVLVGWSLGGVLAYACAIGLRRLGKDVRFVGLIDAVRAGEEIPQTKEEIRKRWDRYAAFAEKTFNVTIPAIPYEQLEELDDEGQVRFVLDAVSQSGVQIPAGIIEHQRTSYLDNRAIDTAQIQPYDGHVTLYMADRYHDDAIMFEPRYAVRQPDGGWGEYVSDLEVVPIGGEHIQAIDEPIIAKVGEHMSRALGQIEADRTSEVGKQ

Lysine--tRNA ligase = Lysine--tRNA ligase (Plasmodium falciparum (isolate 3D7), UniProt Q8IDJ8); test: Pf-KRS-1 (Lysyl-RNA Synthetase-1, KRS-1, cytosolic KRS) from Plasmodium falciparum. Inhibitor assay, 384 well plate, luminescence read.; format: functional
Lysine--tRNA ligase, sequence (Q8IDJ8 whole entry): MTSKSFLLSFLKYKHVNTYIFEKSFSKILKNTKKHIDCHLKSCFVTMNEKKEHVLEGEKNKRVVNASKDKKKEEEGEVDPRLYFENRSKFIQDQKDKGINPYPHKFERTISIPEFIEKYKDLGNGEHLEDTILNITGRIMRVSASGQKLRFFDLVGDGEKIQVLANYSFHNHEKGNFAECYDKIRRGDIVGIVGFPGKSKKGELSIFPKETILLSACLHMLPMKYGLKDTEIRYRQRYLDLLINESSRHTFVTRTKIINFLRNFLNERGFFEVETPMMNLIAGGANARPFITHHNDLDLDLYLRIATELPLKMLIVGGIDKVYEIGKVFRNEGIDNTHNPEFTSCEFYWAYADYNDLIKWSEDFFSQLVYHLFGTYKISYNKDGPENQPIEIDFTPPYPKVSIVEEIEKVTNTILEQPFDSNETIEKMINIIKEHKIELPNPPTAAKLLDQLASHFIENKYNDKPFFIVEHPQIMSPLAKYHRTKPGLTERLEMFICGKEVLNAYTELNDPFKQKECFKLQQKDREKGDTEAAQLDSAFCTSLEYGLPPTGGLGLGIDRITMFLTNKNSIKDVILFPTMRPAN

[2] = In vitro enzyme assay to detect hydrolysis of chlorophenol red-beta-D-[…] directly proportional to the number of Toxoplasma stably expressing beta-galactosidase; format: functional, organism-based, Toxoplasma gondii; conditions: Toxoplasma gondii
Histidine--tRNA ligase = target: T1, Histidine--tRNA ligase (Leishmania infantum, UniProt A4I591); test: Leishmania infantum Histidine tRNA synthetase (LdHisRS); format: functional
T1 sequence (A4I591 whole entry): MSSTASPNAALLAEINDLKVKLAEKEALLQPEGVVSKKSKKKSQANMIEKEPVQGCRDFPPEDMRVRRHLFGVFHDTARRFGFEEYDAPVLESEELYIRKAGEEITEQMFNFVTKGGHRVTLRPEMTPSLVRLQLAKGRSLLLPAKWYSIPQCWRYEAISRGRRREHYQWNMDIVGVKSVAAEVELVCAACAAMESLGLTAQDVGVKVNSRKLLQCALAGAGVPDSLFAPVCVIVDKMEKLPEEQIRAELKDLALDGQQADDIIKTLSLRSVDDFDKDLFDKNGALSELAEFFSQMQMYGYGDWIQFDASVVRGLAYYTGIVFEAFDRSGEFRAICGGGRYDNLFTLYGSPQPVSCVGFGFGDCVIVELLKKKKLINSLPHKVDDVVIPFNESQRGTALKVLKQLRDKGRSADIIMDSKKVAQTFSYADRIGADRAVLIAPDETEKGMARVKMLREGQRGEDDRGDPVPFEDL

[3] = target: T2, Coenzyme A biosynthesis bifunctional protein CoaBC (Mycobacterium tuberculosis (strain ATCC 25618 / H37Rv), UniProt P9WNZ1); test: Biomol Green assay for MtCoaBC inhibitor, OD650 read; format: functional
T2 sequence (P9WNZ1 whole entry): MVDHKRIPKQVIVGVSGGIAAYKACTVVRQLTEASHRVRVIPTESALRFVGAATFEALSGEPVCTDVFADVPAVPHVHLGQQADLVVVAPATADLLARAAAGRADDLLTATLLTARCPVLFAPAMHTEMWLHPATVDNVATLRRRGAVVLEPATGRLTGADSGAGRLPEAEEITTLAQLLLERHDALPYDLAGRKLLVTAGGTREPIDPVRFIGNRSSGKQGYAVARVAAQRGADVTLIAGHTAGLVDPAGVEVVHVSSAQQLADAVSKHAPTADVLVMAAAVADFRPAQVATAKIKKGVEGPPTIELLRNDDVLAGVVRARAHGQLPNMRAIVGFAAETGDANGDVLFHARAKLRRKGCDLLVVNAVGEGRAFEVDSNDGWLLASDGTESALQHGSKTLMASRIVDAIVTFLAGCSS

[4] = microbe, parasite or virus in culture; conditions: Mycobacterium tuberculosis, 72 h, read-out: pIC50 (converted)
[5] = microbe, parasite or virus in culture; conditions: Mycobacterium tuberculosis, 96 h, read-out: pIC50 (converted)

| Compound | IC50 [1] | other results |
| --- | --- | --- |
| Cc1ccc(-c2ncc(C(=O)NCCNc3ncccn3)s2)c(C)c1 | 12 µM and 14.8 µM |  |
| CC(=O)N1CCCC1c1ccc(Br)cn1 (stereo not drawn) | > 100 µM |  |
| CC(Nc1cnn(C)c(=O)c1Cl)c1ccc(F)c(F)c1 (stereo not drawn) | > 100 µM |  |
| COC(=O)C(C)(C)NC(=O)c1cc2sc(N(C)C)nc2s1 | 21.9 µM and 10.8 µM |  |
| CCC[C@H]1CN(S(C)(=O)=O)C[C@@H]1NC(=O)c1ccc(COC)cc1 | > 100 µM |  |
| CC(C)N1Cc2cccc(NCC(=O)N(C)C3CCCCC3)c2C1 | > 100 µM |  |
| Cc1nc(-c2ccc(Cl)s2)sc1C(=O)NCCS(N)(=O)=O | 33.3 µM and 21 µM |  |
| O=C(CCc1cc(Cl)no1)N1CCC(c2cc3ncccc3cn2)CC1 | > 100 µM |  |
| Cc1cccn2c(=O)cc(CSCC(=O)Nc3nnc(C(C)C)s3)nc12 | > 100 µM |  |
| Cc1n[nH]c(SCC(=O)N2C[C@H]3CC[C@@H]2CN(c2ncccn2)C3)n1 | > 100 µM |  |
| CC1(NC(=O)Cc2csc(NC(=O)c3ccccc3)n2)CCS(=O)(=O)C1 (stereo not drawn) | > 100 µM |  |
| CCOC(=O)CNC(=O)NCc1cc(C)n(-c2ccccc2OC)c1C | > 100 µM |  |
| COCc1nc(C(=O)N2CCCC2c2ccc(OC)cc2)cs1 (stereo not drawn) | > 100 µM |  |
| Cn1nc2c(cc1=O)CN(c1ncnc3sccc13)CC2 |  | IC50 (Lysine--tRNA ligase): > 50.1 µM; IC50 [2]: 9.58 µM; IC50 (Histidine--tRNA ligase): 6.32 µM and 5.55 µM; IC50 [3]: > 30.2 µM |
| CC(C)(C)c1cc(NC(=O)CN2CCC(N3CCNC3=O)CC2)on1 | > 100 µM |  |
| NC(=O)N1CCCN(CCc2nc(-c3cccc(Cl)c3)no2)CC1 | > 100 µM |  |
| Cc1ccc2nc(C(=O)N(C)[C@@H]3CC[C@@H](N4CCCC4)[C@@H]3O)cn2c1 | > 100 µM |  |
| Cc1cc(S(=O)(=O)Nc2cccc(I)c2)sc1C(=O)O | 6.1 µM and 15.1 µM |  |
| CC(C)(C)c1nc(CN(CCC2CCCCC2)CC(N)=O)no1 | > 100 µM |  |
| CCc1nc2n(n1)CC(NCc1ncc(-c3ccccc3)o1)CC2 (stereo not drawn) | > 100 µM |  |
| Cc1cc(C)n(-c2cncc(NCCC(=O)NC(C)C)n2)n1 | 24.1 µM and 15.2 µM |  |

| Compound | IC50 [1] | other results |
| --- | --- | --- |
| Cc1n[nH]c(C)c1CCC(=O)NCC1(O)CCN(c2ccccn2)C1 (stereo not drawn) | > 100 µM |  |
| N#Cc1cccc(N2CCC(CO)(CCOc3ccccc3)CC2)n1 | 48.2 µM and 33.8 µM |  |
| O=C(Cc1cccc(F)c1)N1CCc2ncnc(NC3CC3)c2CC1 | > 100 µM |  |
| CN(CC1CCCCC1)C(=O)c1ccc(-n2ncc(C#N)c2N)cc1 | 40.8 µM and 6.64 µM |  |
| Cn1ccc(C(=O)NCc2cccc(NC(=O)C3CCC3)c2)cc1=O | > 100 µM |  |
| COc1ccsc1C(=O)Nc1cc(Cl)c(=O)n(C)c1 |  | IC50 (Lysine--tRNA ligase): > 50.1 µM; IC50 (Histidine--tRNA ligase): 12.3 µM and 10.6 µM; IC50 [3]: > 30.2 µM |
| Cc1nc(CN(C)C(=O)NC(C)c2ccc3c(c2)OCCO3)cs1 (stereo not drawn) | > 100 µM |  |
| CSCc1ccc(N2CCC(C(O)Cc3ccccc3)CC2)nc1 (stereo not drawn) | > 100 µM |  |
| Cn1cc(-c2ncc3c(c2C(=O)O)CCN(CC2CCOC2)C3)cn1 (stereo not drawn) | > 100 µM |  |
| c1ccc2c(c1)CN(c1ncnc3sc4c(c13)CCNC4)CCO2 | > 100 µM |  |
| Cn1cc(I)c(C(=O)NCCCn2cc(Br)cn2)n1 | 9.34 µM and 48.9 µM |  |
| CC(NC(=O)Nc1cccnc1N1CCCC1)c1nncn1C (stereo not drawn) | > 100 µM |  |
| O=C1CNc2ncnc(N3CCN(Cc4ccccc4F)CC3)c2N1 | > 100 µM |  |
| N#Cc1cccc(N2CCC(CO)(CCCc3ccccc3)CC2)n1 | > 18.6 µM and 25.5 µM |  |
| O=C(Nc1cc(CSCCO)ccn1)c1ccc(Cl)o1 | > 100 µM and 98.1 µM |  |
| Cc1ccc(C(=O)N2CCN(c3ncnc4nc(N)ccc34)CC2)o1 | > 100 µM |  |
| Cn1cc(-c2cc(C(F)F)n3nc(CCC(=O)O)nc3n2)cn1 | 12 µM and 19.8 µM |  |
| CCN(CC)C(=O)c1cc(C2CCCN2C)ccn1 (stereo not drawn) | > 100 µM |  |
| Cc1nc(CNC(=O)N2CCN(c3ccc(Cl)cn3)CC2)sc1C | 42.5 µM and 31.5 µM |  |
| COc1cccc(-c2cc(NCC(=O)O)nc3[nH]ccc23)n1 | 29.9 µM and 35.7 µM |  |
| Cc1ccc(C)c(-n2ncc(C(=O)NCC3COC(C)(C)O3)c2N)c1 (stereo not drawn) | > 100 µM |  |

| Compound | IC50 [1] | other results |
| --- | --- | --- |
| CS(=O)(=O)NCc1cc(-c2cc(F)cc(F)c2)nc(N2CC[C@H](O)C2)n1 | > 100 µM |  |
| Cn1cncc1-c1nnc([C@H]2CCN(Cc3ncc[nH]3)C2)o1 | > 100 µM |  |
| COc1ccc2nc(C3CC3)cc(C(=O)NCc3noc(C)n3)c2c1 | 21.6 µM and 21.4 µM |  |
| CCCn1nnc(NCc2ccc(-c3ccc(Br)cc3)o2)n1 | 29.6 µM and > 100 µM |  |
| CS(=O)(=O)CCCSc1n[nH]c(-c2ccc3c(c2)CCC3)n1 | 5.44 µM and 19.5 µM |  |
| CCc1noc(Cn2c(=O)c3c(C(F)(F)F)cc(C)nc3n2C)n1 | 36 µM and 34.8 µM |  |
| CCc1nnc(CN2CCOC(Cn3cc(C)cn3)C2)o1 (stereo not drawn) | > 100 µM |  |
| Cc1noc(CNc2ccc(CC(=O)N3CCSCC3)cc2)n1 | > 100 µM |  |
| N#Cc1ccc(C(=O)O)nc1/C=C/c1cccc(Cl)c1 | > 100 µM |  |
| CC1(C)Cc2ccccc2-c2nc(NCCCO)[nH]c(=O)c21 | 28.6 µM and 27.1 µM |  |
| CC(C)NC(=O)[C@@H]1CN(C(=O)C2CC2)C[C@]12Cc1ccccc1C(=O)N2 | > 100 µM |  |
| CCN(Cc1nc2c(cnn2C)c(=O)[nH]1)c1ccccc1 | > 100 µM |  |
| CCc1cccc(NS(=O)(=O)c2cc(C)c(C(=O)O)s2)c1 | 16.6 µM and 11.6 µM |  |
| CNc1cncc(C2CCCN2c2cc(C)ncn2)n1 (stereo not drawn) | 20.5 µM and 30.5 µM |  |
| CC(C)c1nc(CN(C)C2CCN(CCNS(C)(=O)=O)C2)no1 (stereo not drawn) | > 100 µM |  |
| N#Cc1c(N2CCCN(C3CCOCC3)CC2)nc2ccccn12 | > 100 µM |  |
| CC(C)c1nc(CN2CCc3onc(-c4cccc(F)c4)c3C2)no1 | > 100 µM |  |
| O=S(=O)(c1c(N2CCCCC2)ccc2nonc12)N1CCCCC1 | 26.1 µM and 29.2 µM |  |
| COc1ccc2nc(C[C@@H]3C[C@@H](C(C)C)[C@H](CN)C=C3C)[nH]c2n1 | > 100 µM |  |
| Cc1cccc(COc2ccc(NC(=O)C(C)NC(N)=O)c(C)c2)c1 (stereo not drawn) | > 100 µM |  |
| CC(C)(C)C(=O)N1CCC(n2nc(-c3ccco3)ccc2=O)CC1 | > 100 µM |  |

| Compound | IC50 [1] | other results |
| --- | --- | --- |
| CSc1ccc2cc(CN(C)CCO)c(=O)[nH]c2c1 | 31.4 µM |  |
| O=C(Nc1nc2c(s1)CN(S(=O)(=O)C1CC1)CC2)c1cccc(Cl)c1 | 12.2 µM and 20.2 µM |  |
| CC(O)CN1CCC(CNCc2cccc(C(N)=O)c2)CC1 (stereo not drawn) | > 100 µM |  |
| Cc1cccc(C(C)CNS(=O)(=O)CCCC#N)c1 (stereo not drawn) | > 100 µM |  |
| COCC1CCN(C(=O)c2cc(-c3ccco3)nc3c(Cl)cccc23)C1 (stereo not drawn) | 34.6 µM and > 100 µM |  |
| Nc1nccnc1CC1CCCN(Cc2ccnc3ccccc23)C1 (stereo not drawn) | > 100 µM |  |
| Cc1nnsc1C(=O)N1CC[C@H](c2ccccc2)[C@@H]2[C@H]1CCCCN2C | > 100 µM |  |
| Cc1nc(-c2ccc(Cl)s2)sc1C(=O)N(C)CC(N)=O | 30.9 µM and 43.8 µM |  |
| Cc1n[nH]c(C)c1CCN(C)c1ccc(-c2nc(C3CC3)no2)cn1 | > 100 µM |  |
| CNC(=O)c1cnc(/C=C/c2cc(OC)cc(OC)c2)s1 | 29.1 µM and 11 µM |  |
| Cn1cc(C[C@H]2[C@H](N3CCOCC3)CCN2c2ncc(F)cn2)cn1 | > 100 µM |  |
| CC[C@H](C)[C@H](N)C(=O)Nc1nc(-c2cnc(N(C)C)nc2)cs1 | > 100 µM |  |
| Cc1ccc(CNC(=O)NCCCn2nc3ccccn3c2=O)s1 | > 100 µM |  |
| CC(NC(=O)N1CCC(CO)CC1)c1csc2ccccc12 (stereo not drawn) | > 100 µM |  |
| CN(C)c1ccc(-c2nnc([C@H]3CCN(C4CCCCC4)C3)o2)cc1 | > 100 µM |  |
| CCc1cnc(N2CC[C@H]3[C@@H]2CCC(=O)N3CC2CCOCC2)nc1 | > 100 µM |  |
| c1csc(-c2noc(CCCN3CCCC3Cn3cncn3)n2)c1 (stereo not drawn) | > 100 µM |  |
| CCOCCCNC(=O)c1cn(C(C)(C)C)c2ncccc12 | > 100 µM |  |
| Cn1cc(-c2ccnc(NCC3CCN(Cc4ccccc4)C3)n2)cn1 (stereo not drawn) | > 100 µM and 60.6 µM |  |
| O=C(c1ccc2c(c1)CCCC2)N1CCn2ncnc2C1 |  | IC50 (Lysine--tRNA ligase): > 50.1 µM; IC50 [3]: > 30.2 µM |
| CCOCC1CCN(C(=O)C(c2ccccc2F)N(C)C)CC1 (stereo not drawn) |  | IC50 (Lysine--tRNA ligase): > 50.1 µM; IC50 [4]: > 50.1 µM; IC50 [3]: > 30.2 µM; IC50 [5]: > 50.1 µM |
